Reference: US12662458B2, “Solid forms of a compound” (Denali Therapeutics Inc., priority 2020, dated 2026)
Values after ≈ are worked out from the molar mass of the structure shown.

Columns and labels:
[1] = Storage stability of amorphous Form D; format: physicochemical
Procedure: Form A was kept in an oven at 150° C. until all solids melted. The melt was kept at 150° C. for 5 minutes and was then taken out of the oven and cooled to room temperature.

[2] = Plasma PK in monkeys, powder in capsule; format: in vivo; settings: male, cynomolgus monkey, po, 15 mg/kg, single oral 15 mg/kg; for AUC(0-t): read-out: AUC0-24 h; for Tmax: read-out: Tmax
Procedure: Non-naïve male cynomolgus monkeys were used in this study with at least a 7-day washout period prior to dosing Animals were administered micronized Form A, unmicronized Form A, or micronized Form C powder in capsule by single oral administration at 15 mg/kg. The capsules were prepared according to the animals' body weights on dosing day. Blood samples were collected at 0.25, 0.5, 1, 2, 4, 8, 24, 48, and 72 hours post-dose.

[3] = Dynamic vapor sorption (hygroscopicity); format: physicochemical; settings: DVS
Procedure: DVS analysis was carried out using a Surface Measurement System DVS Intrinsic analyzer. The instrument was calibrated with standard weights. Approximately 15-20 mg of sample was loaded into a pan for analysis. The sample was analyzed at 25° C. in 10% relative humidity (RH) steps from 0 to 95% RH (adsorption cycle) and from 95 to 0% RH (desorption cycle). The movement from one step to the next occurred either after satisfying the equilibrium criterion of 0.002% weight change (dm/dt) or, if the equilibrium criterion was not met, after ten hours.

[4] = Biorelevant media solubility of Forms A and C; format: physicochemical; settings: for Solubility / Final XRPD: 37° C.
Procedure: Biorelevant media solubility of Forms A and C were studied in water, SGF, FaSSIF, and FeSSIF at 37° C. 10-20 mg of Form A or C was weighed into 2-3 mL glass vials and media was added to achieve a solids loading of ˜5 mg/mL. Each slurry was magnetically agitated at 750-1000 rpm at 37° C., filtered via centrifugation, and the supernatant was analyzed by HPLC to determine solubility. In all cases, there was no polymorphic form change observed by XRPD analysis of the filtered solids.

[5] = Solid form stability on storage; format: physicochemical
Procedure: To evaluate the solid form stability, Forms A and C were stored under 25° C./60% RH (open), 40° C./75% RH (open), and 60° C. for up to 4 weeks. Samples were analyzed by XRPD, TGA, DSC, and HPLC purity.

[6] = Plasma PK in monkeys, nanosuspension; format: in vivo; settings: male, cynomolgus monkey, po, 25 mg/kg, nanosuspension in deionized water, single oral 25 mg/kg
Procedure: Non-naïve male cynomolgus monkeys were used in this study with at least a 7-day washout period prior to dosing Animals were administered a nanosuspension of Form C as a single oral administration at 25 mg/kg. The nanosuspension was prepared by suspending nano-milled Form C in deionized water (5 mg/mL) to obtain an opaque homogenous suspension. Blood samples were collected at 0.25, 0.5, 1, 2, 4, 8, 24, 48, and 72 hours post-dose. Concentrations of Compound I in plasma samples were determined by LC/MS/MS.
A separate study was performed for a nanosuspension of Form A.

[7] = Plasma PK in rats, nanosuspension; format: in vivo; settings: rat, nanosuspension in deionized water, single oral 25 mg/kg
Procedure: Wistar Han rats were administered a nanosuspension of Form A or Form C as a single oral administration at 25 mg/kg. The nanosuspensions were prepared by suspending nano-milled Form A or Form C in deionized water (2.5 mg/mL) to obtain opaque homogenous suspensions. Blood samples were collected at 0.25, 0.5, 1, 2, 4, 8, 24, 48, and 72 hours post-dose. Concentrations of Compound I in plasma samples were determined by LC/MS/MS.

[8] = Slurry interconversion of Form A and Form C; format: physicochemical
Procedure: Form A slurry converts to Form C in the presence of Form C seed. For example, Form A (10 mg) and Form C (10 mg) were stirred in saturated IPA/water and MeCN/water at temperatures ranging from 5-60° C. […] Form A could only be prepared in a location uncontaminated with Form C (e.g., locations where From C had not previously existed).

## O=C(COc1ccc(Cl)cc1)NC12CC(c3nnc([C@H]4C[C@@H](OC(F)(F)F)C4)o3)(C1)C2 [Form D, 2-(4-chlorophenoxy)-N-[3-[5-[cis-3-(trifluoromethoxy)cyclobutyl]-1,3,4-oxadiazol-2-yl]-1-bicyclo[1.1.1]pentanyl]acetamide]
[1]; standing at room temperature or higher (25° C.-50° C.) for several days
  storage stability of form: convert to Form C
[1]; stored at 5° C.
  storage stability of form: stable for 7 days
[1]; stored at RT-60° C., 7 days
  storage stability of form: converted to Form C

## O=C(COc1ccc(Cl)cc1)NC12CC(c3nnc([C@H]4C[C@@H](OC(F)(F)F)C4)o3)(C1)C2 (single isomer, unassigned) [Form A, 2-(4-chlorophenoxy)-N-[3-[5-[cis-3-(trifluoromethoxy)cyclobutyl]-1,3,4-oxadiazol-2-yl]-1-bicyclo[1.1.1]pentanyl]acetamide]
[2]; micronized (d90 5)
  Cmax: 9.8 ± 4.1 µM
  AUC(0-t): 154 ± 44 µM·h
  Tmax: 8 h
[2]; unmicronized (d90 43)
  Cmax: 5.6 ± 0.4 µM
  AUC(0-t): 92 ± 24 µM·h
  Tmax: 4 h
[3]
  Hygroscopicity: Non-hygroscopic
  weight change / form change after exposure to humidity: no form change
[4]; FaSSIF
  Solubility: 25 µg/mL (≈ 54.6 µM)
[4]; FeSSIF
  Solubility: 44 µg/mL (≈ 96.1 µM)
[4]; SGF
  Solubility: 46 µg/mL (≈ 100 µM)
[4]; Water
  Solubility: 9.7 µg/mL (≈ 21.2 µM)
[4]; filtered solids after slurry in FaSSIF
  Final XRPD: Form A
[4]; filtered solids after slurry in FeSSIF
  Final XRPD: Form A
[4]; filtered solids after slurry in SGF
  Final XRPD: Form A
[4]; filtered solids after slurry in Water
  Final XRPD: Form A
[4]; listed as Compound I Form A
  aqueous solubility: about 9.7 microgram/mL
[5]; 25° C./60% RH (open), 1 week
  DSC endotherm: 125.6 °C
  HPLC purity: 99.3%
  TGA loss (%, to 150° C.): 1.8%
  XRPD: Form A
[5]; 25° C./60% RH (open), 4 week
  DSC endotherm: 125.3 °C
  HPLC purity: 98.8%
  TGA loss (%, to 150° C.): 0.6%
  XRPD: Form A
[5]; 25° C./60% RH (open), 40° C./75% RH (open), 60° C., up to 4 weeks
  solid form stability (form change, weight gain, purity changes): No form change, weight gain, or purity changes
[5]; 40° C./75% RH (open), 1 week
  DSC endotherm: 125.4 °C
  HPLC purity: 99.3%
  TGA loss (%, to 150° C.): 0.9%
  XRPD: Form A
[5]; 40° C./75% RH (open), 4 week
  DSC endotherm: 125.1 °C
  HPLC purity: 98.7%
  TGA loss (%, to 150° C.): 0.7%
  XRPD: Form A
[5]; 60° C. (open), 1 week
  DSC endotherm: 125.2 °C
  HPLC purity: 99.3%
  TGA loss (%, to 150° C.): 0.7%
  XRPD: Form A
[5]; 60° C. (open), 4 week
  DSC endotherm: 125.1 °C
  HPLC purity: 98.8%
  TGA loss (%, to 150° C.): 0.6%
  XRPD: Form A
[5]; Initial
  DSC endotherm: 125.0 °C
  HPLC purity: 98.5%
  TGA loss (%, to 150° C.): 0.4%
  XRPD: Form A
[6]
  Cmax: 25.4 ± 4.1 µM
[6]; read-out: AUC0-24 h
  AUC(0-t): 451 ± 84 µM·h
[6]; read-out: Tmax
  Tmax: 4 h
[7]; Wistar Han, po, 25 mg/kg
  Cmax: 105 ± 8 µM
[7]; Wistar Han, po, 25 mg/kg, read-out: AUC0-48 h
  AUC(0-t): 1700 ± 271 µM·h
[7]; Wistar Han rats, read-out: Tmax
  Tmax: 8 h
[8]; ACN/water (1:2), 5 ° C., 8 day
  Results (solid form after slurry): Form C
[8]; ACN/water (1:2), 22 ° C., 8 day
  Results (solid form after slurry): Form C
[8]; ACN/water (1:2), 60 ° C., 6 day
  Results (solid form after slurry): Form C
[8]; Form A (10 mg) and Form C (10 mg) in saturated IPA/water and MeCN/water, 5-60° C., 6-8 days
  solid form after slurry by XRPD and DSC: only Form C was present
[8]; IPA/water (1:1), 5 ° C., 8 day
  Results (solid form after slurry): Form C
[8]; IPA/water (1:1), 22 ° C., 8 day
  Results (solid form after slurry): Form C
[8]; IPA/water (1:1), 60 ° C., 6 day
  Results (solid form after slurry): Form C
